Measured values as given in the NIST ThermoML archive (doi:10.1021/je700287u).
Numbers after ± are expanded uncertainties.

Test: xn = mol fraction of the nth substance listed
Conditions: Liquid

Question: What does the source list for `CN(CCO)CCO` [N-methyldiethanolamine] + O?
Answer: mass density (333.04 K, 10996 kPa, x1 = 0.0369): 1000 ± 0.4 kg/m3; mass density (333.04 K, 11991 kPa, x1 = 0.0369): 1000.4 ± 0.4 kg/m3; mass density (333.04 K, 12996 kPa, x1 = 0.0369): 1000.8 ± 0.4 kg/m3; mass density (333.04 K, 13988 kPa, x1 = 0.0369): 1001.2 ± 0.4 kg/m3; mass density (333.04 K, 14991 kPa, x1 = 0.0369): 1001.6 ± 0.4 kg/m3; mass density (333.04 K, 15994 kPa, x1 = 0.0369): 1002 ± 0.4 kg/m3; mass density (333.04 K, 16992 kPa, x1 = 0.0369): 1002.4 ± 0.4 kg/m3; mass density (333.04 K, 17985 kPa, x1 = 0.0369): 1002.8 ± 0.4 kg/m3; mass density (333.04 K, 18990 kPa, x1 = 0.0369): 1003.2 ± 0.4 kg/m3; mass density (333.04 K, 19977 kPa, x1 = 0.0369): 1003.6 ± 0.4 kg/m3; mass density (333.05 K, 1013 kPa, x1 = 0.0893): 1013 ± 0.4 kg/m3; mass density (333.05 K, 2006 kPa, x1 = 0.0893): 1013.4 ± 0.4 kg/m3; mass density (333.05 K, 2994 kPa, x1 = 0.0893): 1013.8 ± 0.4 kg/m3; mass density (333.05 K, 4031 kPa, x1 = 0.0893): 1014.2 ± 0.4 kg/m3; mass density (333.05 K, 4999 kPa, x1 = 0.0893): 1014.6 ± 0.4 kg/m3; mass density (333.05 K, 6000 kPa, x1 = 0.0893): 1015 ± 0.4 kg/m3; mass density (333.05 K, 6995 kPa, x1 = 0.0893): 1015.4 ± 0.4 kg/m3; mass density (333.05 K, 8005 kPa, x1 = 0.0893): 1015.8 ± 0.4 kg/m3; mass density (333.05 K, 9000 kPa, x1 = 0.0893): 1016.2 ± 0.4 kg/m3; mass density (333.05 K, 9992 kPa, x1 = 0.0893): 1016.5 ± 0.4 kg/m3; mass density (333.05 K, 10993 kPa, x1 = 0.0893): 1017 ± 0.4 kg/m3; mass density (333.05 K, 11998 kPa, x1 = 0.0893): 1017.3 ± 0.4 kg/m3; mass density (333.05 K, 13000 kPa, x1 = 0.0893): 1017.7 ± 0.4 kg/m3; mass density (333.05 K, 14008 kPa, x1 = 0.0893): 1018.1 ± 0.4 kg/m3; mass density (333.05 K, 14983 kPa, x1 = 0.0893): 1018.5 ± 0.4 kg/m3; mass density (333.05 K, 16002 kPa, x1 = 0.0893): 1018.9 ± 0.4 kg/m3; mass density (333.05 K, 17032 kPa, x1 = 0.0893): 1019.3 ± 0.4 kg/m3; mass density (333.05 K, 17945 kPa, x1 = 0.0893): 1019.6 ± 0.5 kg/m3; mass density (333.05 K, 18989 kPa, x1 = 0.0893): 1020 ± 0.5 kg/m3; mass density (333.05 K, 19994 kPa, x1 = 0.0893): 1020.4 ± 0.5 kg/m3; mass density (342.91 K, 1008 kPa, x1 = 0.1302): 1011.7 ± 0.4 kg/m3; mass density (342.91 K, 1996 kPa, x1 = 0.1302): 1012.1 ± 0.4 kg/m3; mass density (342.91 K, 3044 kPa, x1 = 0.1302): 1012.5 ± 0.4 kg/m3; mass density (342.91 K, 4015 kPa, x1 = 0.1302): 1012.9 ± 0.4 kg/m3; mass density (342.91 K, 5006 kPa, x1 = 0.1302): 1013.4 ± 0.4 kg/m3; mass density (342.91 K, 5995 kPa, x1 = 0.1302): 1013.8 ± 0.4 kg/m3; mass density (342.91 K, 7010 kPa, x1 = 0.1302): 1014.2 ± 0.4 kg/m3; mass density (342.91 K, 8001 kPa, x1 = 0.1302): 1014.6 ± 0.4 kg/m3; mass density (342.91 K, 8996 kPa, x1 = 0.1302): 1015 ± 0.4 kg/m3; mass density (342.91 K, 9995 kPa, x1 = 0.1302): 1015.5 ± 0.4 kg/m3; mass density (342.91 K, 10992 kPa, x1 = 0.1302): 1015.9 ± 0.4 kg/m3; mass density (342.91 K, 12029 kPa, x1 = 0.1302): 1016.3 ± 0.4 kg/m3; mass density (342.91 K, 12993 kPa, x1 = 0.1302): 1016.7 ± 0.4 kg/m3; mass density (342.91 K, 13996 kPa, x1 = 0.1302): 1017.1 ± 0.4 kg/m3; mass density (342.91 K, 14997 kPa, x1 = 0.1302): 1017.5 ± 0.4 kg/m3; mass density (342.91 K, 15998 kPa, x1 = 0.1302): 1017.9 ± 0.4 kg/m3; mass density (342.91 K, 16997 kPa, x1 = 0.1302): 1018.3 ± 0.4 kg/m3; mass density (342.91 K, 18033 kPa, x1 = 0.1302): 1018.8 ± 0.5 kg/m3; mass density (342.91 K, 18977 kPa, x1 = 0.1302): 1019.2 ± 0.5 kg/m3; mass density (342.91 K, 19980 kPa, x1 = 0.1302): 1019.6 ± 0.5 kg/m3; mass density (342.94 K, 1029 kPa, x1 = 0.0893): 1005.9 ± 0.4 kg/m3; mass density (342.94 K, 1996 kPa, x1 = 0.0893): 1006.3 ± 0.4 kg/m3; mass density (342.94 K, 3018 kPa, x1 = 0.0893): 1006.7 ± 0.4 kg/m3; mass density (342.94 K, 3995 kPa, x1 = 0.0893): 1007.1 ± 0.4 kg/m3; mass density (342.94 K, 5000 kPa, x1 = 0.0893): 1007.5 ± 0.4 kg/m3; mass density (342.94 K, 5992 kPa, x1 = 0.0893): 1007.9 ± 0.4 kg/m3; mass density (342.94 K, 7008 kPa, x1 = 0.0893): 1008.3 ± 0.4 kg/m3; mass density (342.94 K, 7994 kPa, x1 = 0.0893): 1008.8 ± 0.4 kg/m3; mass density (342.94 K, 9001 kPa, x1 = 0.0893): 1009.1 ± 0.4 kg/m3; mass density (342.94 K, 9994 kPa, x1 = 0.0893): 1009.6 ± 0.4 kg/m3; mass density (342.94 K, 10983 kPa, x1 = 0.0893): 1010 ± 0.4 kg/m3; mass density (342.94 K, 12000 kPa, x1 = 0.0893): 1010.4 ± 0.4 kg/m3; mass density (342.94 K, 12996 kPa, x1 = 0.0893): 1010.8 ± 0.4 kg/m3; mass density (342.94 K, 14014 kPa, x1 = 0.0893): 1011.2 ± 0.4 kg/m3; mass density (342.94 K, 14994 kPa, x1 = 0.0893): 1011.6 ± 0.4 kg/m3; mass density (342.94 K, 15989 kPa, x1 = 0.0893): 1012 ± 0.4 kg/m3; mass density (342.94 K, 16991 kPa, x1 = 0.0893): 1012.4 ± 0.4 kg/m3; mass density (342.94 K, 17989 kPa, x1 = 0.0893): 1012.8 ± 0.4 kg/m3; mass density (342.94 K, 18984 kPa, x1 = 0.0893): 1013.2 ± 0.4 kg/m3; mass density (342.94 K, 19988 kPa, x1 = 0.0893): 1013.6 ± 0.4 kg/m3; mass density (342.96 K, 1042 kPa, x1 = 0.0607): 999.5 ± 0.4 kg/m3; mass density (342.96 K, 2006 kPa, x1 = 0.0607): 999.8 ± 0.4 kg/m3; mass density (342.96 K, 3028 kPa, x1 = 0.0607): 1000.3 ± 0.4 kg/m3; mass density (342.96 K, 4013 kPa, x1 = 0.0607): 1000.7 ± 0.4 kg/m3; mass density (342.96 K, 5003 kPa, x1 = 0.0607): 1001.2 ± 0.4 kg/m3; mass density (342.96 K, 5994 kPa, x1 = 0.0607): 1001.6 ± 0.4 kg/m3; mass density (342.96 K, 7004 kPa, x1 = 0.0607): 1002 ± 0.4 kg/m3; mass density (342.96 K, 8063 kPa, x1 = 0.0607): 1002.5 ± 0.4 kg/m3; mass density (342.96 K, 9140 kPa, x1 = 0.0607): 1003 ± 0.4 kg/m3; mass density (342.96 K, 10022 kPa, x1 = 0.0607): 1003.4 ± 0.4 kg/m3; mass density (342.96 K, 11032 kPa, x1 = 0.0607): 1003.7 ± 0.4 kg/m3; mass density (342.96 K, 11997 kPa, x1 = 0.0607): 1004.1 ± 0.4 kg/m3; mass density (342.96 K, 13009 kPa, x1 = 0.0607): 1004.5 ± 0.4 kg/m3; mass density (342.96 K, 14001 kPa, x1 = 0.0607): 1004.9 ± 0.4 kg/m3; mass density (342.96 K, 15005 kPa, x1 = 0.0607): 1005.3 ± 0.4 kg/m3; mass density (342.96 K, 16002 kPa, x1 = 0.0607): 1005.7 ± 0.4 kg/m3; mass density (342.96 K, 17011 kPa, x1 = 0.0607): 1006.1 ± 0.4 kg/m3; mass density (342.96 K, 17988 kPa, x1 = 0.0607): 1006.5 ± 0.4 kg/m3; mass density (342.96 K, 18992 kPa, x1 = 0.0607): 1006.9 ± 0.4 kg/m3; mass density (342.96 K, 20154 kPa, x1 = 0.0607): 1007.3 ± 0.4 kg/m3; mass density (352.84 K, 1009 kPa, x1 = 0.1302): 1004 ± 0.4 kg/m3; mass density (352.84 K, 2026 kPa, x1 = 0.1302): 1004.3 ± 0.4 kg/m3; mass density (352.84 K, 3005 kPa, x1 = 0.1302): 1004.8 ± 0.4 kg/m3; mass density (352.84 K, 4006 kPa, x1 = 0.1302): 1005.3 ± 0.4 kg/m3; mass density (352.84 K, 5004 kPa, x1 = 0.1302): 1005.7 ± 0.4 kg/m3; mass density (352.84 K, 5993 kPa, x1 = 0.1302): 1006.1 ± 0.4 kg/m3; mass density (352.84 K, 6991 kPa, x1 = 0.1302): 1006.5 ± 0.4 kg/m3; mass density (352.84 K, 7992 kPa, x1 = 0.1302): 1006.9 ± 0.4 kg/m3; mass density (352.84 K, 8994 kPa, x1 = 0.1302): 1007.4 ± 0.4 kg/m3; mass density (352.84 K, 9980 kPa, x1 = 0.1302): 1007.8 ± 0.4 kg/m3; mass density (352.84 K, 10971 kPa, x1 = 0.1302): 1008.2 ± 0.4 kg/m3; mass density (352.84 K, 11987 kPa, x1 = 0.1302): 1008.7 ± 0.4 kg/m3; mass density (352.84 K, 13040 kPa, x1 = 0.1302): 1009.1 ± 0.4 kg/m3; mass density (352.84 K, 13997 kPa, x1 = 0.1302): 1009.5 ± 0.4 kg/m3; mass density (352.84 K, 14981 kPa, x1 = 0.1302): 1009.9 ± 0.4 kg/m3
